Data on one compound can be found in patent US5001223A, “Parathyroid hormone antagonists with enhanced metabolic properties” (Merck & Co., Inc., priority 1989, dated 1991).

This assay has as its target T1, parathyroid hormone cell surface receptor (bovine renal cortical plasma membranes) (Bos taurus, UniProt Q1LZF7).
T1 construct: from tissue; host or cells: bovine renal cortex plasma membranes
T1 sequence (Q1LZF7 29-589): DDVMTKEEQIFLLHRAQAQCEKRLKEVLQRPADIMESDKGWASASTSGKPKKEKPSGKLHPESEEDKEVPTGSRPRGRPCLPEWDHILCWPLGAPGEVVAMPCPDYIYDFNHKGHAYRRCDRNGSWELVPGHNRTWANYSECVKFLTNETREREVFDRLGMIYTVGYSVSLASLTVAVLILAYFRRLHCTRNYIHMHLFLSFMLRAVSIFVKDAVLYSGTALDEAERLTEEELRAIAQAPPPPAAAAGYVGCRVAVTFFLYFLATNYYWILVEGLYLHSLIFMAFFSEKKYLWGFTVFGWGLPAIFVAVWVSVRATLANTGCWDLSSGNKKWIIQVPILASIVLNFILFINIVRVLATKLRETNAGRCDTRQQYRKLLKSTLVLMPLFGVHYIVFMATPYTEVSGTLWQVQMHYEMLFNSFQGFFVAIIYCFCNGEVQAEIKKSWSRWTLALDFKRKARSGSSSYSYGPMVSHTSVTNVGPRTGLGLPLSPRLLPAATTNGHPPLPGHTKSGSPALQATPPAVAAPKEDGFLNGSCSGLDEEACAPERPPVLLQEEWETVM
The assay is described as follows: PTH binding assay (receptor assay, radioligand [Nle^8,18,^125 I-Tyr^34 ]bPTH(1-34)NH2). As to conditions: radioligand 25,000 cpm, Tris-containing buffer, 30 min. at 21° C. The method, then:
PTH analogues were analysed in a new receptor assay which modified the assay reported in Rosenblatt et al., Endocrin. 107: 545-550 (1980). The binding assay used [Nle^8,18,^125 I-Tyr^34 ]bPTH(1-34)NH2which was purified by HPLC (Novapak C18, 32-35% CH3 CN in 0.1% TFA) and was stored as aliquots in 25 mM TrisHCl/1% BSA at -70° C. Bovine renal cortical plasma membranes were incubated with radioligand (25,000 cpm) in a Tris-containing buffer (250 ul) for 30 min. at 21° C. Once equilibrium was reached, bound and free radioligand were separated by centrifugation. High specific binding (85%) to bovine renal cortical membranes was obtained consistently.

As to `CN[C@@H](Cc1ccccc1)C(=O)N[C@@H](CCSC)C(=O)N[C@@H](Cc1c[nH]cn1)C(=O)N[C@@H](CC(N)=O)C(=O)N[C@@H](CC(C)C)C(=O)NCC(=O)N[C@@H](CCCCN)C(=O)N[C@@H](Cc1c[nH]cn1)C(=O)N[C@@H](CC(C)C)C(=O)N[C@@H](CO)C(=O)N[C@@H](CO)C(=O)N[C@@H](CCSC)C(=O)N[C@@H](CCC(=O)O)C(=O)N[C@@H](CCCNC(=N)N)C(=O)N[C@H](C(=O)N[C@@H](CCC(=O)O)C(=O)N[C@@H](Cc1c[nH]c2ccccc12)C(=O)N[C@@H](CC(C)C)C(=O)N[C@@H](CCCNC(=N)N)C(=O)N[C@@H](CCCCN)C(=O)N[C@@H](CCCCN)C(=O)N[C@@H](CC(C)C)C(=O)N[C@@H](CCC(N)=O)C(=O)N[C@@H](CC(=O)O)C(=O)N[C@H](C(=O)N[C@@H](Cc1c[nH]cn1)C(=O)N[C@@H](CC(N)=O)C(=O)N[C@@H](Cc1ccc(O)cc1)C(N)=O)C(C)C)C(C)C` [[NMePhe^7,Tyr^34]bPTH(7-34)NH2], the affinity, expressed as Ki, was 82 ± 14 nM.
